The structures appear in SMILES notation. Where two headings read alike, the source gives them in different places.

A word on the EC50: it is the midpoint of the concentration-response curve.

In the assay the target is T1, Kv7.2/7.3 (KCNQ2/3) (Homo sapiens, UniProt O43525+O43526).
T1 construct: expressed in transfected cells; host or cells: CHO
Description: CHO-Kv7.2/7.3 (KCNQ2/3) 86Rb efflux assay. Format: cell-based. The settings on record: for Conc μM @ Max Flux: concentration at which maximal 86Rb flux was seen; for Fitted Max %: fit, maximum activation set at 100% of 70 mM KCl control stimulus; for Emax: read-out: Max Flux %. The procedure: Compounds were tested at concentrations from 0.001 μM to 30 μM to generate 10-point concentration-response curve (CRC) (n=2). Retigabine and ML213 were included as control activators of Kv7.2/7.3 (KCNQ2/3). Data was normalized to ^86Rb flux elicited by application of extracellular buffer containing 70 mM KCl.
Data were fit with “maximum activation” set at 100% of 70 mM KCl control stimulus.

The mark [1] stands for this setting: 10-point CRC 0.001-30 μM, n=2, fit with maximum activation set at 100% of 70 mM KCl control, read-out: EC50.
The mark [2] stands for this setting: 86Rb flux normalized to 70 mM KCl control.
Setting [3] is: Table 7, first line of values, read-out: EC50 (μM, raw).
The mark [4] stands for this setting: Table 7, second, unlabelled line of values, read-out: EC50 (μM, raw).

With `Cc1cc(C)c(NC(=O)C2CC3CCC2C3)c(C)c1` (stereo not shown) [ML213, reference compound], the “Conc μM @ Max Flux” value was 0.3 µM and the “Fitted Max %” value was 98%. Moreover, the EC50 under setting [1] turned out to be 0.02 µM. Besides, the “Max Flux %” value under setting [2] is 109%. Moreover, the “86Rb flux elicited by reference activators” value (EC50 values comparable to literature values) is “robust concentration-dependent”.

In the case of `CCOC(=O)Nc1ccc(NCc2ccc(F)cc2)cc1N` [Retigabine, reference compound], the EC50 under setting [1] amounted to 0.1 µM. Also, the Emax under setting [2] is 89%.

As to `CCCOc1nn(CCC)cc1C(=O)Nc1ccc(F)cc1F` [TT0000349, N-(2,4-difluorophenyl)-3-propoxy-1-propyl-1H-pyrazole-4-carboxamide], the “Conc μM @ Max Flux” value came to 10 µM and the “Fitted Max %” value worked out at 100%. The concentration giving a half-maximal response (EC50) under setting [1] is above 30 µM. Also, the Emax under setting [2] was determined as 33%. For the same molecule, under setting [3], the 50% effective concentration (EC50) turned out to be 0.54 µM. Besides, under setting [4], the EC50 is above 30 µM.

Take `CCCOc1nn(CCC)cc1C(=O)Nc1cc(F)ccc1F` [TT0000351, N-(2,5-difluorophenyl)-3-propoxy-1-propyl-1H-pyrazole-4-carboxamide]: the “Conc μM @ Max Flux” value came to 10 µM and the “Fitted Max %” value worked out at 100%. In addition, the EC50 under setting [1] was above 30 µM. For the same molecule, under setting [2], the Emax was 33%. Also, the concentration for a half-maximal effect (EC50) under setting [3] is above 30 µM. In addition, under setting [4], the EC50 was above 10 µM.

For the molecule `CCCOc1nn(CCC)cc1C(=O)Nc1ccc(F)c(Cl)c1` [TT0000352, N-(3-chloro-4-fluorophenyl)-3-propoxy-1-propyl-1H-pyrazole-4-carboxamide], the “Conc μM @ Max Flux” value came to 3 µM and the “Fitted Max %” value is 100%. In addition, the EC50 under setting [1] was above 30 µM. The Emax under setting [2] turned out to be 33%. Besides, under setting [3], the EC50 worked out at 0.48 µM. The 50% effective concentration (EC50) under setting [4] worked out at 0.14 µM.

Take `CCCOc1nn(CCC)cc1C(=O)Nc1ccccc1` [TT0000363, N-phenyl-3-propoxy-1-propyl-1H-pyrazole-4-carboxamide]: the “Conc μM @ Max Flux” value amounted to 0.001 µM and the “Fitted Max %” value is reported as 100%. Besides, under setting [1], the concentration for a half-maximal effect (EC50) was above 30 µM. The Emax under setting [2] was 15%. Further, the concentration for a half-maximal effect (EC50) under setting [3] is above 30 µM. Further, under setting [4], the EC50 was above 30 µM.

For `CCCOc1nn(CCC)cc1C(=O)Nc1ccc(C#N)cc1` [TT0000366, N-(4-cyanophenyl)-3-propoxy-1-propyl-1H-pyrazole-4-carboxamide], the “Conc μM @ Max Flux” value came to 3 µM and the “Fitted Max %” value was found to be 100%. In addition, the half-maximal effective concentration (EC50) under setting [1] was above 30 µM. Under setting [2], the Emax was determined as 28%. In addition, under setting [3], the EC50 worked out at 0.0054 µM. Moreover, the EC50 under setting [4] is above 30 µM.

As to `CCCOc1nn(CCC)cc1C(=O)Nc1ccc(C(F)(F)F)c(Cl)c1` [TT0000369, N-(3-chloro-4-(trifluoromethyl)phen-yl)-3-propoxy-1-propyl-1H-pyrazole-4-carboxamide], the “Conc μM @ Max Flux” value was determined as 3 µM and the “Fitted Max %” value stood at 100%. Further, the EC50 under setting [1] is above 30 µM. Besides, the Emax under setting [2] came out at 35%. Also, the half-maximal effective concentration (EC50) under setting [3] amounted to 1.54 µM. Also, the half-maximal effective concentration (EC50) under setting [4] amounted to 2.63 µM.

Take `CCCOc1nn(CCC)cc1C(=O)Nc1ccc(C(F)(F)F)c(C)c1` [TT0000372, N-(3-methyl-4-(trifluoromethyl)phen-yl)-3-propoxy-1-propyl-1H-pyrazole-4-carboxamide]: the “Conc μM @ Max Flux” value was 10 µM and the “Fitted Max %” value amounted to 100%. In addition, the EC50 under setting [1] is above 30 µM. The Emax under setting [2] came to 31%. The concentration giving a half-maximal response (EC50) under setting [3] was found to be 9.5 µM. Under setting [4], the EC50 turned out to be 1.6 µM.

The values above are taken from patent US20180161310A1, “COMPOUNDS AND METHODS FOR THE TREATMENT OF NEUROLOGICAL DISORDERS” (Teleos Therapeutics, LLC, priority 2016, published 2018).
